According to ChEMBL document CHEMBL1154782, “Discovery of Trp-His and His-Arg analogues as new structural classes of short antimicrobial peptides” (J Med Chem, 2009):
In brackets after ≈: the same amount, converted by molar mass. Where a SMILES comes first, the peptide text is derived from it. The star is where a group is joined. Boc = CC(C)(C)OC(=O)*; NHBn = c1ccc(CN*)cc1

Key:
Staphylococcus aureus [1] = assay: Antibacterial activity against methicillin-resistant Staphylococcus aureus DSM 50128509 after 15 to 18 hrs under aerobic condition by modified broth microdilution method; assay type: functional
Staphylococcus aureus [2] = assay: Antibacterial activity against methicillin-resistant Staphylococcus aureus DSM 50128509; assay type: functional, organism-based
[3] = tested on: Staphylococcus epidermidis; assay: Antibacterial activity against methicillin-resistant Staphylococcus epidermidis DSM 50160384 after 15 to 18 hrs under aerobic condition by modified broth microdilution method; assay type: functional
[4] = tested on: Staphylococcus epidermidis; assay: Antibacterial activity against methicillin-resistant Staphylococcus epidermidis DSM 50160384; assay type: functional, organism-based
Escherichia coli [5] = assay: Antibacterial activity against Escherichia coli ATCC 35218 after 15 to 18 hrs under aerobic condition by modified broth microdilution method; assay type: functional
Escherichia coli [6] = assay: Antibacterial activity against Escherichia coli ATCC 35218; assay type: functional, organism-based
Klebsiella pneumoniae [7] = assay: Antibacterial activity against Klebsiella pneumoniae ATCC 700603 after 15 to 18 hrs under aerobic condition by modified broth microdilution method; assay type: functional
Klebsiella pneumoniae [8] = assay: Antibacterial activity against Klebsiella pneumoniae ATCC 700603; assay type: functional, organism-based
Pseudomonas aeruginosa [9] = assay: Antibacterial activity against Pseudomonas aeruginosa ATCC 9027 after 15 to 18 hrs under aerobic condition by modified broth microdilution method; assay type: functional
Candida albicans [10] = assay: Antifungal activity against Candida albicans ATCC 10231 after 15 to 18 hrs under aerobic condition by modified broth microdilution method; assay type: functional
Candida albicans [11] = assay: Antifungal activity against Candida albicans ATCC 10231; assay type: functional, organism-based
L929 = assay: Cytotoxicity against mouse L929 cells up to 200 ug/mL after 5 days by MTT assay; assay type: cell-based; conditions: l929, 120 h
Pseudomonas aeruginosa [12] = assay: Antibacterial activity against Pseudomonas aeruginosa ATCC 9027; assay type: functional, organism-based

Structure (SMILES)	MIC (Staphylococcus aureus [1]) [µg/mL]	IC50 (Staphylococcus aureus [2]) [µg/mL]	MIC [3] [µg/mL]	IC50 [4] [µg/mL]	MIC (Escherichia coli [5]) [µg/mL]	IC50 (Escherichia coli [6]) [µg/mL]	MIC (Klebsiella pneumoniae [7]) [µg/mL]	IC50 (Klebsiella pneumoniae [8]) [µg/mL]	MIC (Pseudomonas aeruginosa [9]) [µg/mL]	MIC (Candida albicans [10]) [µg/mL]	IC50 (Candida albicans [11]) [µg/mL]	Activity (L929)	IC50 (Pseudomonas aeruginosa [12]) [µg/mL]
COC(=O)[C@H](CCCNC(=N)N)NC(=O)[C@@H](N)Cc1c[nH]c(C(C)(C)C)n1	20 (≈ 52.4 µM)	5.39 (≈ 14.1 µM)	20 (≈ 52.4 µM)	2.53 (≈ 6.63 µM)	200 (≈ 524 µM)	18.5 (≈ 48.4 µM)	200 (≈ 524 µM)	10.5 (≈ 27.6 µM)	> 200	100 (≈ 262 µM)	9.65 (≈ 25.3 µM)	Non-toxic	–
CC(C)(C)OC(=O)N[C@@H](Cc1c[nH]c(C(C)(C)C)n1)C(=O)N[C@@H](CCCNC(=N)N)C(=O)NCc1ccccc1	200 (≈ 359 µM)	17.5 (≈ 31.5 µM)	> 200	–	100 (≈ 180 µM)	12 (≈ 21.6 µM)	> 200	–	> 200	200 (≈ 359 µM)	33.1 (≈ 59.5 µM)	Non-toxic	–
COC(=O)[C@H](CCCNC(=N)N)NC(=O)[C@H](Cc1c[nH]c(C2CCCCC2)n1)NC(=O)OC(C)(C)C	200 (≈ 394 µM)	10.1 (≈ 19.9 µM)	100 (≈ 197 µM)	10 (≈ 19.7 µM)	100 (≈ 197 µM)	4.93 (≈ 9.71 µM)	> 200	–	200 (≈ 394 µM)	100 (≈ 197 µM)	9.44 (≈ 18.6 µM)	Non-toxic	27.5 (≈ 54.2 µM)
COC(=O)[C@H](Cc1c[nH]c(C2CCCCC2)n1)NC(=O)[C@@H](N)Cc1c[nH]c2ccccc12	100 (≈ 229 µM)	10.1 (≈ 23.1 µM)	200 (≈ 457 µM)	12.5 (≈ 28.5 µM)	> 200	–	200 (≈ 457 µM)	29.4 (≈ 67.1 µM)	> 200	> 200	–	Non-toxic	–
COC(=O)[C@H](Cc1c[nH]c(C23CC4CC(CC(C4)C2)C3)n1)NC(=O)[C@@H](N)Cc1c[nH]c2ccccc12	20 (≈ 40.8 µM)	2.3 (≈ 4.7 µM)	20 (≈ 40.8 µM)	4.59 (≈ 9.37 µM)	> 200	–	200 (≈ 408 µM)	24.4 (≈ 49.9 µM)	> 200	> 200	–	Non-toxic	–
COC(=O)[C@H](Cc1c[nH]c(C2CCC2)n1)NC(=O)[C@@H](N)Cc1c[nH]c2ccccc12	200 (≈ 488 µM)	9.54 (≈ 23.3 µM)	200 (≈ 488 µM)	14.5 (≈ 35.5 µM)	200 (≈ 488 µM)	9.48 (≈ 23.2 µM)	> 200	–	> 200	200 (≈ 488 µM)	18.2 (≈ 44.6 µM)	Non-toxic	–
COC(=O)[C@H](Cc1c[nH]c(C(C)C)n1)NC(=O)[C@@H](N)Cc1c[nH]c2ccccc12	200 (≈ 503 µM)	13.1 (≈ 33 µM)	> 200	–	200 (≈ 503 µM)	12.2 (≈ 30.7 µM)	> 200	–	> 200	200 (≈ 503 µM)	15.6 (≈ 39.3 µM)	Non-toxic	–
N=C(N)NCCC[C@H](NC(=O)[C@@H](N)Cc1c[nH]c(C2CCCCC2)n1)C(=O)NCc1ccccc1	20 (≈ 41.4 µM)	2.06 (≈ 4.27 µM)	5 (≈ 10.4 µM)	1 (≈ 2.07 µM)	200 (≈ 414 µM)	17.5 (≈ 36.3 µM)	200 (≈ 414 µM)	23.5 (≈ 48.7 µM)	> 200	200 (≈ 414 µM)	18 (≈ 37.3 µM)	Non-toxic	–
COC(=O)[C@H](CCCNC(=N)N)NC(=O)[C@@H](N)Cc1c[nH]c(C2CCC2)n1	200 (≈ 527 µM)	9.28 (≈ 24.5 µM)	100 (≈ 264 µM)	6.66 (≈ 17.6 µM)	200 (≈ 527 µM)	15.3 (≈ 40.3 µM)	> 200	–	> 200	200 (≈ 527 µM)	14 (≈ 36.8 µM)	Non-toxic	–
CC(C)(C)OC(=O)N[C@@H](Cc1c[nH]c2ccccc12)C(=O)N[C@@H](Cc1c[nH]cn1)C(=O)NCc1ccccc1 (Boc-Trp-His-NHBn)	> 200	–	200 (≈ 377 µM)	15.6 (≈ 29.4 µM)	> 200	–	200 (≈ 377 µM)	21.2 (≈ 40 µM)	200 (≈ 377 µM)	200 (≈ 377 µM)	9.7 (≈ 18.3 µM)	Non-toxic	40.7 (≈ 76.7 µM)
COC(=O)[C@H](Cc1c[nH]cn1)NC(=O)[C@@H](N)Cc1c[nH]c2ccccc12 (H-Trp-His-OMe)	> 200	–	> 200	–	200 (≈ 563 µM)	18.5 (≈ 52.1 µM)	> 200	–	> 200	200 (≈ 563 µM)	20.6 (≈ 58 µM)	Non-toxic	–
O=C(O)c1cn(C2CC2)c2cc(N3CCNCC3)c(F)cc2c1=O [CIPROFLOXACIN]	–	–	–	–	–	–	–	–	–	–	–	–	1.18 (≈ 3.56 µM)
NC[C@@H]1O[C@H](O[C@H]2[C@@H](O)[C@H](O[C@@H]3[C@@H](O)[C@H](N)C[C@H](N)[C@H]3O[C@H]3O[C@H](CN)[C@@H](O)[C@H](O)[C@H]3N)O[C@@H]2CO)[C@H](N)[C@@H](O)[C@@H]1O [FRAMYCETIN]	–	–	–	–	–	–	–	0.6 (≈ 0.976 µM)	–	–	–	–	–
